T1: SpSLC9C1 (Strongylocentrotus purpuratus, UniProt A3RL54)
T1 construct: gene SLC9C1; ITC and nanoDSF: isolated CTD (S946–E1193: helix E', CNBD and β-CTD); cryo-EM: full-length SpSLC9C1 in lipid nanodiscs
T1 sequence (A3RL54 946-1193): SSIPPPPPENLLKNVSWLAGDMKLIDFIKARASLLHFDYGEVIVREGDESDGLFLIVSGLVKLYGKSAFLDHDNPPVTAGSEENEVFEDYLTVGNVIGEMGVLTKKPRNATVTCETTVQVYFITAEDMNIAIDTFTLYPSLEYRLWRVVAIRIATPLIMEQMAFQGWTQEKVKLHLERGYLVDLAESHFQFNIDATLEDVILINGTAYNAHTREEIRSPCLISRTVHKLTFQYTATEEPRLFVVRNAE

B1: SpSLC9C1 (sperm-specific Na+/H+ exchanger SLC9C1 from the sea urchin Strongylocentrotus purpuratus) (natural protein, UniProt A3RL54 30-1325, looked up)
chain: SSGGSGHTPTTQATHADDHDLTTHNGTEEHDDGHDDGHDDLHAHAPKVIVFISGSCLFGAISRSLFKKLPIPYTVVLLILGAILGVVASNVPLVEEHTRDVAHMDPHVLLQIFLPVLIFESAFAMDVHTFMRSFSQVCILALFGLVVASVLTAVLAMNLFNYNWNFSEAMMFGAIMSATDPVAVVALLKDLGASKQLGTIIEGESLLNDGCAIVIFNVFMKMVFFPQLTSTVGQNVLYFLQVAVAGPLWGYAVAKVTVFFLSHIFNDALVEITITLAATYLTYYIGDIWLEVSGVLAVVVLGLIVNAEKTSISPEVEVFLHRFWEMLAYLANTLIFMMVGVVVTQKALVAVDKMDWFYLIILYLAITIIRGMVISLFSPILSRIGYGLTWRNAVIMTWGGLRGAVGLALALVVENLAGNDVIGSKFLFHTAGIVVLTLVINATTIQTLLRILGMSDISIPKRLAMAGAVRRIHEGQNRTLNMLKSDRFLADADWDIATAACEISDPYSALSDDENAPADELTLGERKSVCPGCKAMVPNEPSPREFADMMEEARLRMLKAEKISYWKQFEHGMLAREALRLLVQHAEVAADEKDQFILVDDLKKSWQIKGIYPWLKRKLEDLISEKKIAAIPMPKYKLGKLMYKICHHMAFEVTINIAIVLNIVPIIMEFVVQDKMASVSTMAAPGSTVSSEPSSLQKIEDALRISNYVFFVIYAIEAIVKILGLGRHYIVSHWNKFDAFILVVALVDIIIAETLLKGSITINLSSIKVVKLFRLLRGLRMLRLTKALIPKLILVVNGKINNQLSLGYDVGKGYIIGEEEVGKIIDRMVDNKKILRELKHISETGRLQVVKELGLLQREHPGIAVSVKTRQAIRTILNHSRETIHELQGAGLLDEMEAHKLELTVEIKMKRLMNAPSSIPPPPPENLLKNVSWLAGDMKLIDFIKARASLLHFDYGEVIVREGDESDGLFLIVSGLVKLYGKSAFLDHDNPPVTAGSEENEVFEDYLTVGNVIGEMGVLTKKPRNATVTCETTVQVYFITAEDMNIAIDTFTLYPSLEYRLWRVVAIRIATPLIMEQMAFQGWTQEKVKLHLERGYLVDLAESHFQFNIDATLEDVILINGTAYNAHTREEIRSPCLISRTVHKLTFQYTATEEPRLFVVRNAEYNGPILDGRLDVDSKRSLISITEISSNMCLKHAAELRQKNSKVMLSRKSSGAAAKEEEDCIPNTSDVEQAAGVSPSVPTKTTPKPKSFLPSLGLSMSKERVNGEAVEESPVKTKQGEETPETEEGAAPRVNV
notes: SpSLC9C1, Strongylocentrotus purpuratus, UniProt A3RL54, gene codon-optimized for mammalian cells; full-length protein; the first 70 N-terminal residues are not resolved in the maps; C-terminal HRV-3C cleavage site followed by Venus, myc and SBP tags; the tags were cleaved off with HRV-3C, so residues of the cleavage site may remain at the C-terminus; Homodimer by cryo-EM; also called full-length …

Tests used:
[1] = biological target: T1, SpSLC9C1; assay: ITC (isolated CTD), nanoDSF ([…] °C shift), cryo-EM structure; type: binding
[2] = biological target: the molecule itself; assay: cryo-EM structure; ligand-free SpSLC9C1 in MSP 2N2 / soy polar lipid nanodiscs, pH 7.6, 150 mM Na+ (20 mM HEPES pH 7.6, 150 mM NaCl); C2 symmetry imposed on the final dimer map

Row | Molecule | Kd [1] [µM] | stoichiometry N [2]
1 | Nc1nc2c(ncn2[C@@H]2O[C@@H]3COP(=O)(O)O[C@H]3[C@H]2O)c(=O)[nH]1 [cGMP] | 9.3 | 
2 | B1 |  | 2

Source: PMC10620091 (Nature, 2023)
